Holding throughout (test): inhibition of tumour cell growth, NCI panel, 48 h
Experiment [1] concerns HCC 2998.
Experiment [2] concerns UO-31.
Experiment [3] deals with Hs-578T.
Experiment [4] has as its system MCF7.
Experiment [5] has as its system SN12C.
The test system of experiment [6] is SW-620.
The subject of experiment [7] is MOLT-4.
For experiment [8], the system named is SF-268.
In experiment [9] the test system is SK-MEL-28.
Experiment [10] concerns MDA-MB-435.
Experiment [11] concerns MDA-MB-231.
In experiment [12] the test system is A549.
In experiment [13] the test system is SK-MEL-5.
In experiment [14] the test system is COLO 205.
Experiment [15] relates to LOX IMVI.
Experiment [16] has as its system OVCAR-8.
For experiment [17], the system named is HCT-15.
The test system of experiment [18] is HL-60.
Experiment [19] deals with RXF 393.

Structures are written as SMILES.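 A five-concentration, 48-hour dose response in 96-well plates underlies each endpoint, interpolated linearly between surrounding concentrations. At the GI50, growth is halved.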 Activity calls are given as the source filed them. No stated cut-off is given here; in the data, active = GI50 up to about 1.1 µM and inactive = higher. A value given as a limit tells only on which side of the number the result lay.

For the compound `CC(C)OCC(O)COc1cc(=O)oc2ccccc12` (centres undefined), the GI50 is 50.4 µM (inactive) in [1]; > 100 µM (inactive) in experiment [2]; > 100 µM (inactive) in experiment [3]; > 100 µM (inactive) in experiment [4]; > 100 µM (inactive) in [5]; > 100 µM (inactive) in experiment [6]. Also, the GI50 in [7], in experiment [8], in experiment [9], in experiment [10], in experiment [11] and in experiment [12] was > 100 µM (inactive) in each case. Further, the GI50 in experiment [13] was > 100 µM (inactive); in experiment [14] it was > 100 µM (inactive); in [15] it was > 100 µM (inactive); in [16], > 100 µM (inactive); in experiment [17], > 100 µM; in experiment [18], > 100 µM (inactive).
Turning to `Cc1cccc(-c2cc(O)c3c(C)ccnc3n2)c1`, the GI50 in experiment [1] was 1.03 µM (active); in experiment [3], 0.356 µM (active); in experiment [4], 0.319 µM (active); in experiment [5] it was 0.564 µM (active); in [6], 0.169 µM (active); in [7], 0.71 µM (active). Besides, the GI50 in experiment [8] is 10 µM (inactive); in [9] it was > 61.1 µM (inactive); in experiment [10] it was 0.0463 µM (active); in [19], 0.455 µM (active); in [11], 0.745 µM (active); in experiment [12], 0.71 µM (active). Besides, the GI50 was 0.269 µM (active) in experiment [13]; 0.208 µM (active) in experiment [14]; 0.667 µM (active) in experiment [15]; 0.718 µM (active) in experiment [16]; 0.261 µM in experiment [17]; 0.166 µM (active) in experiment [18].
For the compound `CC1OC2OC3C(OCC(O)C3O)OC(=O)[C@]34CCC(C)(C)CC3C3=CCC5[C@@]6(C)C[C@H](O)[C@H](OC7OC(CO)C(O)C(O)C7OC7OCC(OC(=O)CC(C)(O)CC(=O)OC1C(OC1OC(CO)C(O)C(O)C1O)C2O)C(O)C7O)[C@@](C)(CO)C6CC[C@@]5(C)[C@]3(C)CC4` (some centres undefined), the GI50 in [1] was 2.43 µM (inactive); in [2], 4.47 µM (inactive); in experiment [3], 14.6 µM (inactive); in experiment [4] it was 12 µM (inactive); in experiment [5] it was 12.2 µM (inactive); in [6] it was 9.35 µM (inactive). Further, the GI50 was 10.3 µM (inactive) in experiment [7]; 10.8 µM (inactive) in experiment [8]; 1.97 µM (inactive) in experiment [9]; 2.45 µM (inactive) in [10]; 10.9 µM (inactive) in experiment [11]; 3.85 µM (inactive) in experiment [12]. Also, the GI50 in experiment [13] is 11.6 µM (inactive); in [14] it was 2.3 µM (inactive); in [15], 10.6 µM (inactive); in experiment [16], 12.3 µM (inactive); in experiment [17], 12 µM; in [18], 1.8 µM (inactive).
Consider `CCOC(=O)C1C(c2ccc(OC)cc2)c2c(nn(-c3ccccc3)c2O)CC1(O)OCC` (centres undefined), for which the GI50 was > 100 µM (inactive) in [1]; 5.46 µM (inactive) in experiment [2]; > 100 µM (inactive) in [3]; 30.1 µM (inactive) in experiment [4]; > 100 µM (inactive) in experiment [5]; 27.5 µM (inactive) in [6]. The GI50 in [7] was 2.45 µM (inactive); in [8] it was > 100 µM (inactive); in experiment [9] it was > 100 µM (inactive); in experiment [10], 4.02 µM (inactive); in experiment [11], 39.9 µM (inactive); in experiment [12] it was 24 µM (inactive). Further, the GI50 is 26.6 µM (inactive) in [13]; 36.5 µM (inactive) in [14]; 0.597 µM (active) in experiment [15]; > 100 µM (inactive) in experiment [16]; 77.4 µM in [17]; 0.47 µM (active) in experiment [18].
Take `CC(C)CCCC(C)[C@H]1CCC2[C@@H]3CCC4Cc5nc6c(nc5C[C@]4(C)C3CC[C@@]21C)CC1CC[C@@H]2C(C[C@@H](O)[C@@]3(C)C2C[C@@H]2OC4(CCC(C)CO4)C(C)[C@@H]23)[C@@]1(C)C6` (some centres undefined): the GI50 in [1], in experiment [3], in experiment [4], in [5], in [6] and in [7] was > 100 µM (inactive) in each case. Besides, the GI50 in [8], in experiment [9], in experiment [10], in experiment [19], in [11] and in experiment [12] was > 100 µM (inactive) throughout. Also, the GI50 was > 100 µM (inactive) in experiment [13]; > 100 µM (inactive) in experiment [14]; > 100 µM (inactive) in experiment [16]; > 100 µM in [17]; > 100 µM (inactive) in experiment [18].
As for `C=C[C@H]1CN2CCc3c([nH]c4cc(O)ccc34)[C@@H]2C[C@@H]1C[C@H]1c2[nH]c3ccccc3c2CCN1C`, the GI50 is 1.76 µM (inactive) in [1]; 2.09 µM (inactive) in experiment [2]; 3.53 µM (inactive) in experiment [3]; 2.31 µM (inactive) in experiment [4]; 4.79 µM (inactive) in experiment [5]; 1.92 µM (inactive) in [6]. The GI50 is 3.57 µM (inactive) in [7]; 6.04 µM (inactive) in experiment [8]; 1.78 µM (inactive) in experiment [9]; 2.01 µM (inactive) in experiment [10]; 6.05 µM (inactive) in [11]; 5.53 µM (inactive) in experiment [12]. The GI50 is 1.73 µM (inactive) in experiment [13]; 1.77 µM (inactive) in [14]; 4.41 µM (inactive) in experiment [15]; 6.11 µM (inactive) in [16]; 2.54 µM in experiment [17]; 1.04 µM (active) in experiment [18].
`Cc1ccc(S(=O)(=O)NNC(=O)c2cc(C)ccc2NC(=O)C23CC4CC(CC(C4)C2)C3)cc1`: the GI50 was 30.1 µM (inactive) in [1]; 21.6 µM (inactive) in experiment [2]; 32.9 µM (inactive) in experiment [3]; 37.2 µM (inactive) in [4]; 44.4 µM (inactive) in [5]; 92.9 µM (inactive) in experiment [6]. Also, the GI50 in experiment [7] is > 100 µM (inactive); in experiment [8], 41.7 µM (inactive); in experiment [10], 61.9 µM (inactive); in experiment [19], 25.4 µM (inactive); in experiment [11], 41.6 µM (inactive); in [12], 29.4 µM (inactive). In addition, the GI50 in experiment [13] is 61.5 µM (inactive); in experiment [14], > 100 µM (inactive); in [15] it was > 100 µM (inactive); in [16] it was 45.7 µM (inactive); in [17], 22.7 µM; in experiment [18], 66.8 µM (inactive).
Turning to `CC(C)(CCC(C)(C)N1OC1c1ccccc1)N1OC1c1ccccc1` (centres undefined), the GI50 is 31.9 µM (inactive) in experiment [1]; 20 µM (inactive) in experiment [2]; 36.2 µM (inactive) in [3]; 28.7 µM (inactive) in experiment [4]; > 100 µM (inactive) in [5]; 78 µM (inactive) in experiment [6]. Further, the GI50 in experiment [8] was 95.1 µM (inactive); in experiment [9], > 100 µM (inactive); in [10] it was 32.8 µM (inactive); in experiment [11], 26.4 µM (inactive); in [12], 11.6 µM (inactive); in [13] it was 17.5 µM (inactive). Moreover, the GI50 in experiment [14] is 47.2 µM (inactive); in [15], 26.4 µM (inactive); in experiment [16], > 100 µM (inactive); in experiment [17], 28.6 µM; in [18], 21 µM (inactive).
On to `CCCCc1ccc(-n2sc3ncccc3c2=O)cc1`, for which the GI50 in experiment [1] was 5.35 µM (inactive); in [2], 11.3 µM (inactive); in [3] it was 15.7 µM (inactive); in [4], 23.8 µM (inactive); in experiment [5], 16.4 µM (inactive); in experiment [6], 13.9 µM (inactive). The GI50 in [7] is 4.74 µM (inactive); in experiment [8], 8.75 µM (inactive); in experiment [9] it was 13.9 µM (inactive); in [10], 16.3 µM (inactive); in experiment [11], 15.6 µM (inactive); in [12] it was 14 µM (inactive). In addition, the GI50 in [13] was 11.3 µM (inactive); in [14], 17.3 µM (inactive); in experiment [15], 5.66 µM (inactive); in experiment [16] it was 12.5 µM (inactive); in experiment [17], 5.52 µM; in experiment [18], 0.908 µM (active).
On to `CC1OC(O[C@H]2CC[C@]3(C)[C@H]4CC=C5[C@@H]6[C@@H](C)[C@H](C)CC[C@]6(C(=O)O)CC[C@@]5(C(=O)O)[C@]4(C)CC[C@H]3C2(C)C)C(O)C(O)C1O` (some centres undefined), for which the GI50 in experiment [1], in [2], in experiment [3], in experiment [4], in [5] and in experiment [6] was > 75 µM (inactive) throughout. For the same compound, the GI50 in experiment [7], in [8], in [10], in experiment [19], in experiment [11] and in experiment [13] was > 75 µM (inactive) in each case. The GI50 is > 75 µM (inactive) in [14]; > 75 µM (inactive) in experiment [15]; > 75 µM (inactive) in experiment [16]; > 75 µM in experiment [17]; 24.8 µM (inactive) in [18].
`C=CC[C@]12C[C@@H](C(=O)OC)N(C(=O)OC)[C@H]1N(S(=O)(=O)c1ccccc1)c1ccccc12`: the GI50 in [1] is 44.2 µM (inactive); in experiment [2], 56 µM (inactive); in experiment [3], 42.9 µM (inactive); in experiment [4] it was 41.3 µM (inactive); in experiment [5], 89.7 µM (inactive); in [6], > 100 µM (inactive). For the same compound, the GI50 in [7] is 33 µM (inactive); in [8], 78.2 µM (inactive); in experiment [9], > 100 µM (inactive); in [10], 28.2 µM (inactive); in experiment [19], 26 µM (inactive); in experiment [11], 36.2 µM (inactive). The GI50 is 88.5 µM (inactive) in experiment [12]; 58.5 µM (inactive) in experiment [13]; > 100 µM (inactive) in experiment [16]; 40.1 µM in experiment [17]; 29.6 µM (inactive) in experiment [18].

These data come from ChEMBL document CHEMBL1201862, “PubChem BioAssay data set” (2004).
